Source: patent publication US20230404988A1, “PROSTAGLANDIN RECEPTOR AGONISTS FOR USE IN THE TREATMENT OF A CORONAVIRUS INFECTION SUCH AS COVID-19” (priority 2020, published 2023)

Legend:
ACE2 [1] = assay: ACE2 expression in A549 cells (RT-PCR/SYBR green PCR, immunoblot); assay type: cell-based, human; settings: incubation of 3 h to 24 h
Experimental: Human epithelial NSLC cell lines A549 were purchased from ATCC (catalogue number: ATCC CCL-185, American Type Culture Collection (ATCC), Manassas, VA). A549 cells were maintained in DMEM containing 10% fetal bovine serum (FBS), 4 mM GlutaMax (Thermo Scientific, Waltham, MA), 500 μg/mL Normocin (InvivoGen, San Diego, CA), 100 units/mL penicillin, and […] streptomycin (Thermo Scientific).
(§1) Gene downregulation of ACE2 has been evaluated with by RT-PCR and SYBR green PCR analyses. Total RNA was extracted from the cells or tissues and purified with the TRIzol reagent according to the manufacturer's protocol (Invitrogen). RNA was reverse transcribed by SuperScript® III reverse transcriptase (Invitrogen). The genes were amplified by with specific primers designed using BLAST alignment. Three housekeeping gene, GAPDH, (3-actin gene, and rare PBGD (porphobilinogen deaminase) gene were combined for normalization. Relative expression levels have been evaluated with the parameter of (ΔCt) of different human cell lines and human GNB cells after treatment with EP2, EP4 or EP2/EP4 agonists at a dose response concentration varying from 10E-2 to 10E2 fold of their respective EC50 of binding activity on each relevant EP receptor.
(§2) Immunoblot analysis on A549 cells treated with different EP2 and/or EP4 agonists doses ranging from 10E-2 to 10E2 fold of their respective binding EC50 is performed by lysing cells as described by Jia et al. (J. Virol., 2005, 79(23), 14614-14621).

ACE2 [2] = assay: ACE2 expression in human primary ciliated cells obtained by gentle nasal brushing (RT-PCR/SYBR green PCR, immunoblot); assay type: cell-based; settings: GNC cells, incubation of 3 h to 24 h
Experimental: Human primary ciliated cells obtained by gentle nasal brushing cells (GNBC cells) are collected from different patient sources, as described by Veit et al. (Nat. Med., 2018, 24(11), 1732-1742). Ciliogenesis is performed on cells plated on to poly-lysine-coated coverslips in 3.5-cm plates at 0.4×10^6 cells per well, allowed to attach for 24 hr, and then serum starved for 48 hr.
as §1, §2

SARS-CoV-2 [3] = assay type: cell-based; settings: human primary cells from airways biopsies infected with SARS-CoV-2 (MOI 0.001), 10 μM, day 2 post-infection, vs non-treated cells (FIG. 1)
SARS-CoV-2 [4] = assay type: cell-based; settings: cells infected with SARS-CoV-2 (Example 4)
UREC cells = assay: Microarray transcriptome analysis of UREC cells (Affymetrix Human ClariomD, Reactome/GO analysis); assay type: cell-based
Experimental: Cell Culture Immortalized temperature-sensitive URECs are maintained and resuspended in complete RCGM (RCGM medium (0.5% FBS), 1.5% (v/v) certified FBS). Cells were seeded at 116,000 cells/well (350 k cells/cm 2) in 200 μl total volume of complete RCGM medium. Seed in triplicates per each experimental condition. Incubate at 39° C. to stop proliferation for 72 hours. After 72 hrs of cell growth, remove complete RCGM media. Replace with fresh complete RCGM media (2% FBS) containing the drug (at either 0.2, 2, or 10 μM) or vehicle control (media alone or 0.04% DMSO) at the appropriate concentration.
RNA Extraction. Extract RNA using RNeasy Micro Kit (Qiagene) using supplier's procedure. In short, disrupt the cells by adding QIAzol Lysis Reagent. Scratch each well with the pipette tip and pipette to mix. Homogenize the cells by vortexing. Adjust sample volume. Homogenize by passing the lysate through a 20-gauge needle. Precipitate proteins using chloroform solution. Load into a RNeasy MinElute column. Wash and elute following supplier's procedure. Prepare sample at a concentration of 5 ng/μl for quality control and measure by spectrometry (Xpose, Trinean) and confirming RNA as a RIN using capillary electrophoresis (TapeStation, Agilent). The average yield of extraction is 0.4±0.2 μg/100,000 cells (1 well of a 96-well plate).
Microarray data analysis. Affymetrix Human ClariomD were used following manufacturers protocols. Affymetrix Human ClariomD data were normalized using quantile normalization with adjustment based on the median intensity of probes with similar GC content (using Affymetrix Power Tools). Background correction was made using the antigenomic probes. Only probes targeting exons annotated from FAST DB v2016_1 transcripts were selected. Probes were considered as expressed if the DABG p-value ≤0.05 (Detection Above Background p-values were calculated using Affymetrix Power Tools) in more or equal than 60% of samples. Genes were considered as expressed if more or equal than 50% of their probes are expressed Minimum 4 selected probes were required to assess gene expression. If possible only high-specific probes were selected (i.e., not overlapping with repeat regions; not cross-hybridizing; and 40≤GC %≤60). In addition, if possible, only probes targeting constitutive gene regions were selected (i.e., targeting at least 75% of transcripts of a given gene). We performed a paired Student's t-test to compare gene intensities in the different biological replicates.
Analysis at the splicing level was first performed taking into account only exon probes (“EXON” analysis) in order to potentially detect new alternative events that could be differentially regulated (i.e., without taking into account known alternative events). Analysis at the splicing level was also performed by taking into account known patterns (“PATTERN” analysis) using the FAST DB splicing patterns annotation (i.e., for each gene, all possible splicing patterns were defined by comparing exon content of transcripts). All types of alternative events can be analyzed: Alternative first exons, alternative terminal exons, cassette exon, mutually exclusive exons, alternative 5′ donor splice site, alternative 3′-acceptor splice sites, intron retention, internal exon deletion and complex events corresponding to mix of several alternative event categories). “EXON” and “PATTERN” analyses were based on the splicing-index calculation. Results were considered statistically significant for uncorrected p-values ≤0.05 and fold-changes ≥2.0. Finally, significant results from “EXON” and “PATTERN” analyses were merged to obtain a single result list.
Unsupervised analysis. The PCA has been performed using “prcomp” function in R and the 2 first dimensions were plotted. The clustering has been performed using “dist” and “hclust” functions in R, using Euclidean distance and Ward agglomeration method. […]

[5] = 71 genes in term, UREC cells, 2 micromolar PGE1 vs non treated control
[6] = UREC cells, 2 micromolar PGE1 vs non treated control, regulation up

## O=C(O)COc1cccc(CN(Cc2ccc(-n3cccn3)cc2)S(=O)(=O)c2cccnc2)c1 [Lab1, taprenepag]
ACE2 [1]
  expression of mRNA of ACE2: significantly reduce
  protein level of ACE2: significantly reduce
ACE2 [2]
  expression of mRNA of ACE2: significantly reduce
  protein level of ACE2: significantly reduce
SARS-CoV-2 [3]
  virus replication (viral RNA): able to decrease virus replication
SARS-CoV-2 [4]
  effect on SARS-CoV-2 infection: significant effect

## CC#CCC(C)[C@H](O)/C=C/[C@@H]1[C@H]2C/C(=C/CCCC(=O)O)C[C@H]2C[C@H]1O (stereo partly shown) [Lab2, iloprost]
SARS-CoV-2 [4]
  effect on SARS-CoV-2 infection: significant effect

## CCCCC[C@H](O)CC[C@H]1[C@H](O)CC(=O)[C@@H]1CCCCCCC(=O)O [Lab4, 13,14-dihydro-PGE1]
SARS-CoV-2 [4]
  effect on SARS-CoV-2 infection: significant effect

## CCCCC[C@H](O)/C=C/[C@H]1[C@H](O)CC(=O)[C@@H]1CCCCCCC(=O)O [PGE1, Prostaglandin E1]
ACE2 [1]
  expression of mRNA of ACE2: significantly reduce
  protein level of ACE2: significantly reduce
ACE2 [2]
  expression of mRNA of ACE2: significantly reduce
  protein level of ACE2: significantly reduce
UREC cells; 5 genes in term, UREC cells, 2 micromolar PGE1 vs non treated control
  Nb Regulated Genes (Up/Down), GO:0009597 detection of virus: 3 (3/0)
UREC cells; 10 genes in term, UREC cells, 2 micromolar PGE1 vs non treated control
  Nb Regulated Genes (Up/Down), GO:0035455 response to interferon-alpha: 4 (4/0)
UREC cells; 14 genes in pathway, UREC cells, 2 micromolar PGE1 vs non treated control
  Nb Regulated Genes (Up/Down), R-HSA-918233 TRAF3-dependent IRF activation pathway: 4 (4/0)
UREC cells; 17 genes in pathway, UREC cells, 2 micromolar PGE1 vs non treated control
  Nb Regulated Genes (Up/Down), R-HSA-168928 RIG-I/MDA5 mediated induction of IFN-alpha/beta pathways: 6 (6/0)
UREC cells; 29 genes in term, UREC cells, 2 micromolar PGE1 vs non treated control
  Nb Regulated Genes (Up/Down), GO:0005164 tumor necrosis factor receptor binding: 6 (5/1)
UREC cells; 33 genes in pathway, UREC cells, 2 micromolar PGE1 vs non treated control
  Nb Regulated Genes (Up/Down), R-HSA-933541 TRAF6 mediated IRF7 activation: 4 (4/0)
UREC cells; 34 genes in pathway, UREC cells, 2 micromolar PGE1 vs non treated control
  Nb Regulated Genes (Up/Down), R-HSA-936440 Negative regulators of RIG-I/MDA5 signaling: 5 (5/0)
UREC cells; 40 genes in term, UREC cells, 2 micromolar PGE1 vs non treated control
  Nb Regulated Genes (Up/Down), GO:0045071 negative regulation of viral genome replication: 11 (11/0)
UREC cells; 64 genes in term, UREC cells, 2 micromolar PGE1 vs non treated control
  Nb Regulated Genes (Up/Down), GO:0060337 type I interferon signaling pathway: 20 (20/0)
UREC cells; 67 genes in pathway, UREC cells, 2 micromolar PGE1 vs non treated control
  Nb Regulated Genes (Up/Down), R-HSA-909733 Interferon alpha/beta signaling: 20 (20/0)
UREC cells; [5]
  Nb Regulated Genes (Up/Down), GO:0060333 interferon-gamma-mediated signaling pathway: 8 (8/0)
  Nb Regulated Genes (Up/Down), GO:0071347 cellular response to interleukin-1: 9 (5/4)
UREC cells; 73 genes in pathway, UREC cells, 2 micromolar PGE1 vs non treated control
  Nb Regulated Genes (Up/Down), R-HSA-1169408 ISG15 antiviral mechanism: 11 (11/0)
UREC cells; 88 genes in pathway, UREC cells, 2 micromolar PGE1 vs non treated control
  Nb Regulated Genes (Up/Down), R-HSA-877300 Interferon gamma signaling: 11 (11/0)
UREC cells; 110 genes in term, UREC cells, 2 micromolar PGE1 vs non treated control
  Nb Regulated Genes (Up/Down), GO:0009615 response to virus: 21 (19/2)
UREC cells; 165 genes in term, UREC cells, 2 micromolar PGE1 vs non treated control
  Nb Regulated Genes (Up/Down), GO:0051607 defense response to virus: 27 (25/2)
UREC cells; 379 genes in term, UREC cells, 2 micromolar PGE1 vs non treated control
  Nb Regulated Genes (Up/Down), GO:0006954 inflammatory response: 22 (12/10)
UREC cells; 421 genes in term, UREC cells, 2 micromolar PGE1 vs non treated control
  Nb Regulated Genes (Up/Down), GO:0006955 immune response: 26 (19/7)
UREC cells; 430 genes in term, UREC cells, 2 micromolar PGE1 vs non treated control
  Nb Regulated Genes (Up/Down), GO:0045087 innate immune response: 30 (27/3)
UREC cells; UREC cells, 2 micromolar PGE1 vs non treated control, regulation down
  Fold-Change BIRC3: 1.67
UREC cells; [6]
  Fold-Change BST2: 1.6
  Fold-Change DDX58: 2.76
  Fold-Change DHX58: 1.55
  Fold-Change EIF2AK2: 1.74
  Fold-Change EIF4E3: 1.72
  Fold-Change FAST DB STABLE ID GSHG0007017 (no gene symbol): 3.58
  Fold-Change FAST DB STABLE ID GSHG0007018 (no gene symbol): 1.93
  Fold-Change GBP2//GBP7: 1.62
  Fold-Change GBP4: 1.86
  Fold-Change HERC5: 2.37
  Fold-Change HLA-DRA: 1.86
  Fold-Change IFI6: 2.51
  Fold-Change IFI27: 1.57
  Fold-Change IFI35: 1.62
  Fold-Change IFIH1: 2.45
  Fold-Change IFIT1: 5.18
  Fold-Change IFIT2: 4.84
  Fold-Change IFIT3: 3.99
  Fold-Change IFITM1: 2.35
  Fold-Change IRF7: 1.88
  Fold-Change ISG15: 1.89
  Fold-Change MIR3614//TRIM25: 1.56
  Fold-Change MX1: 3.68
  Fold-Change MX2: 4.02
  Fold-Change OASL: 2.27
  Fold-Change RSAD2: 3.79
  Fold-Change SAMHD1: 1.89
  Fold-Change STAT1: 1.73
  Fold-Change TNFSF12//TNFSF12-TNFSF13//TNFSF13: 1.62
  Fold-Change TNFSF13B: 1.65
  Fold-Change TRIM14: 2.02
  Fold-Change USP18: 2.26
  Fold-Change XAF1: 1.82
UREC cells; UREC human cells
  expression of a major biological pathway related to viral infection and interferon signaling: significantly modifies
  fold changes of IFN related genes IFIT1, IFIT2 and IFIT3 (overexpressed): > 3
UREC cells; UREC human cells, doses from 0.2 to 10 microM
  induction of IFN related gene across doses tested: consistent

## CCCCC(C)(C)[C@H](O)/C=C/[C@H]1[C@H](O)CC(=O)[C@@H]1C/C=C\CCCC(=O)O [Lab3, 16-16-dimethyl-PGE2]
SARS-CoV-2 [4]
  effect on SARS-CoV-2 infection: significant effect

## O=C1CC[C@H](/C=C/[C@@H](O)C(F)(F)c2ccccc2)N1CCCCCCc1nn[nH]n1 [Lab5, L902688]
SARS-CoV-2 [4]
  effect on SARS-CoV-2 infection: significant effect
